The structures appear in SMILES notation.

In the assay the target is T1, F508del (Homo sapiens, UniProt P13569, DEL508-508).
T1 construct: expressed in transfected cells
T1 sequence (P13569 with tags, fused parts or gaps DEL508-508): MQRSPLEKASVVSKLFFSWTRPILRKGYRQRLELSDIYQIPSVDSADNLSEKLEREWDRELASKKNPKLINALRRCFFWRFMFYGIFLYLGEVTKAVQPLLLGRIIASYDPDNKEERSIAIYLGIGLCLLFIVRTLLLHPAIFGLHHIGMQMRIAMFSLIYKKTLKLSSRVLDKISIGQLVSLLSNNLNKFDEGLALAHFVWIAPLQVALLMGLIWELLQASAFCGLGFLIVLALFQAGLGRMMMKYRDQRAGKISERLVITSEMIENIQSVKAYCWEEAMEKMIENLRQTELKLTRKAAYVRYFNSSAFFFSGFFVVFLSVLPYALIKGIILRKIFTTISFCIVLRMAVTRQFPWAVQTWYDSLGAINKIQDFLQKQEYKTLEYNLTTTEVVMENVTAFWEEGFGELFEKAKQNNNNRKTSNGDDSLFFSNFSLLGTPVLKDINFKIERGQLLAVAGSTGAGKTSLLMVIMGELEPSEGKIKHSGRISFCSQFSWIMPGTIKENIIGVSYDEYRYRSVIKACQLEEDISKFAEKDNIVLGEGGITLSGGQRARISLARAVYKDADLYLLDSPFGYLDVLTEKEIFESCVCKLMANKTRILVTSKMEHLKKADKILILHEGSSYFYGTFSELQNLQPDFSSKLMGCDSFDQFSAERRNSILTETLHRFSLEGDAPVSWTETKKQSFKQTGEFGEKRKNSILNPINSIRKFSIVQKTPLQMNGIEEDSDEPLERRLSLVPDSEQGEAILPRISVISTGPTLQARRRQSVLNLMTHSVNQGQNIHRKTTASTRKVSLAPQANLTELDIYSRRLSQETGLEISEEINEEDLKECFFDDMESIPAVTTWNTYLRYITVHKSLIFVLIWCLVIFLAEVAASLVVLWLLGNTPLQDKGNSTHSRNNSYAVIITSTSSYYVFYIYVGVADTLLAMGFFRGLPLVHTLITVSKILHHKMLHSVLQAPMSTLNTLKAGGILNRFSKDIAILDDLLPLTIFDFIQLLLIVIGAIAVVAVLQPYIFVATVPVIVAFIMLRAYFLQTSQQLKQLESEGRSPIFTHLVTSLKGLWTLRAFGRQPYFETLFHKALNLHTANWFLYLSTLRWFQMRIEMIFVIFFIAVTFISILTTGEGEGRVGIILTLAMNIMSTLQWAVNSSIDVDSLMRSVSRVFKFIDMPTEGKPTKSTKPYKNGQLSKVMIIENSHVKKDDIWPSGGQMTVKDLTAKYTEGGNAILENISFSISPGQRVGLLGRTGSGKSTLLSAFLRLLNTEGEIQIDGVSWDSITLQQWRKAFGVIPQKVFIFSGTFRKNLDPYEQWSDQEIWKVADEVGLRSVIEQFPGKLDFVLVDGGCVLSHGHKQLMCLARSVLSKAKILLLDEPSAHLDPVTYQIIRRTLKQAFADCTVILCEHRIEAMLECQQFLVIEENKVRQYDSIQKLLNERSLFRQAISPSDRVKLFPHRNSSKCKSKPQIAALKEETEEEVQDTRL
In words: Protocol 1: membrane potential optical assay (FLIPR III, voltage sensing dye), identification of potentiator compounds. The format is cell-based. The conditions noted are these: Table 3, compounds of Table 1. In a few lines: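 Gating potentiation is read as a membrane-potential fluorescence change (FLIPR III, voltage-sensing dye) after one forskolin addition under a Cl− gradient, with gluconate replacing chloride, pH 7.4. Cells are F508del-expressing NIH3T3 mouse fibroblasts held 24 h at 27 °C and exposed to compound before dye loading.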
Regarding `CCCOc1cccc(-c2ccc(C(=O)NS(=O)(=O)c3ccc[nH]c3=O)c(Oc3c(C)cc(C)cc3C)n2)c1` [Compound 1143, N-[(2-oxo-1H-pyridin-3-yl)sulfonyl]-6-(3-propoxyphenyl)-2-(2,4,6-trimethylphenoxy)pyridine-3-carboxamide], the EC30 result is “++ (“++” means between 3 uM and 10 uM)”. Then `CC(C)COc1cc(F)cc(-c2ccc(C(=O)NS(=O)(=O)c3cccc(CO)n3)c(N3CCC(C)CC3)n2)c1` [Compound 1340, 6-(3-fluoro-5-isobutoxy-phenyl)-N-[[6-(hydroxymethyl)-2-pyridyl]sulfonyl]-2-(4-methyl-1-piperidyl)pyridine-3-carboxamide], with “+++ (“+++” means <3 uM)”; and `CCOc1cc(F)cc(-c2ccc(C(=O)NS(=O)(=O)c3ccc[nH]c3=O)c(Oc3c(C)cc(C)cc3C)n2)c1` [Compound 835, 6-(3-ethoxy-5-fluoro-phenyl)-N-[(2-oxo-1H-pyridin-3-yl)sulfonyl]-2-(2,4,6-trimethylphenoxy)pyridine-3-carboxamide], with “++ (“++” means between 3 uM and 10 uM)”. Consider `CC1CN(c2ncc(-c3ccccc3C(F)(F)F)cc2C(=O)NS(=O)(=O)c2cccc(N)n2)C(C)(C)C1` (stereo not drawn) [Compound 1921, N-[(6-amino-2-pyridyl)sulfonyl]-5-[2-(trifluoromethyl)phenyl]-2-(2,2,4-trimethylpyrrolidin-1-yl)pyridine-3-carboxamide], for which the EC30 result was “+++ (“+++” means <3 uM)”.

Turning to `CC(C)COc1cncc(-c2ccc(C(=O)NS(=O)(=O)c3cccc(N)n3)c(N3C[C@@H](C)CC3(C)C)n2)n1` [Compound 1523, N-[(6-amino-2-pyridyl)sulfonyl]-6-(6-isobutoxypyrazin-2-yl)-2-[(4S)-2,2,4-trimethylpyrrolidin-1-yl]pyridine-3-carboxamide], the EC30 result is “+++ (“+++” means <3 uM)”.

For `CC(C)Oc1ccc(-c2ccc(C(=O)NS(=O)(=O)c3cccc(N)n3)c(N3C(C)CC(C)C3C)n2)cn1` (stereo not drawn) [Compound 925, N-[(6-amino-2-pyridyl)sulfonyl]-6-(6-isopropoxy-3-pyridyl)-2-(2,3,5-trimethylpyrrolidin-1-yl)pyridine-3-carboxamide], the EC30 entry is “+++ (“+++” means <3 uM)”. For `CCCOc1ccc(-c2ccc(C(=O)NS(=O)(=O)c3ccc[nH]c3=O)c(Oc3c(C)cc(C)cc3C)n2)cc1Cl` [Compound 999, 6-(3-chloro-4-propoxy-phenyl)-N-[(2-oxo-1H-pyridin-3-yl)sulfonyl]-2-(2,4,6-trimethylphenoxy)pyridine-3-carboxamide], the EC30 result is “++ (“++” means between 3 uM and 10 uM)”.

On to `CCC1CCN(c2nc(-c3cc(F)cc(OCC(C)C)c3)ccc2C(=O)NS(=O)(=O)c2cccc(N)n2)C1` (stereo not drawn) [Compound 931, N-[(6-amino-2-pyridyl)sulfonyl]-2-(3-ethylpyrrolidin-1-yl)-6-(3-fluoro-5-isobutoxy-phenyl)pyridine-3-carboxamide], for which the EC30 result was “+++ (“+++” means <3 uM)”. As for `COc1c(C)cccc1-c1ccc(C(=O)NS(=O)(=O)c2ccc[nH]c2=O)c(N2C[C@@H](C)CC2(C)C)n1` [Compound 1880, 6-(2-methoxy-3-methyl-phenyl)-N-[(2-oxo-1H-pyridin-3-yl)sulfonyl]-2-[(4S)-2,2,4-trimethylpyrrolidin-1-yl]pyridine-3-carboxamide], the entry is “++ (“++” means between 3 uM and 10 uM)”. Consider `CC(C)COc1cc(F)cc(-c2ccc(C(=O)NS(=O)(=O)c3cccc(N)n3)c(OCCC3CCCO3)n2)c1` (stereo not drawn) [Compound 1604, N-[(6-amino-2-pyridyl)sulfonyl]-6-(3-fluoro-5-isobutoxy-phenyl)-2-(2-tetrahydrofuran-2-ylethoxy)pyridine-3-carboxamide], for which the EC30 entry is given as “+++ (“+++” means <3 uM)”. Then `Cc1cc(C)c(Cn2nc(C(C)(C)C)cc2C(=O)NS(=O)(=O)c2ccc(N)cc2)c(C)c1` [Compound 1653, N-(4-aminophenyl)sulfonyl-5-tert-butyl-2-[(2,4,6-trimethylphenyl)methyl]pyrazole-3-carboxamide], with “+++ (“+++” means <3 uM)”. As for `CC(C)COc1cc(F)cc(-c2ccc(C(=O)NS(=O)(=O)c3cccc(N)n3)c(N3[C@H](C)CCC3(C)C)n2)c1` [Compound 1166, N-[(6-amino-2-pyridyl)sulfonyl]-6-(3-fluoro-5-isobutoxy-phenyl)-2-[(5R)-2,2,5-trimethylpyrrolidin-1-yl]pyridine-3-carboxamide], the entry is “+++ (“+++” means <3 uM)”; as for `COc1ccc(-c2ccc(C(=O)NS(=O)(=O)c3ccc[nH]c3=O)c(N3C[C@@H](C)CC3(C)C)n2)c(F)c1` [Compound 1858, 6-(2-fluoro-4-methoxy-phenyl)-N-[(2-oxo-1H-pyridin-3-yl)sulfonyl]-2-[(4S)-2,2,4-trimethylpyrrolidin-1-yl]pyridine-3-carboxamide], “++ (“++” means between 3 uM and 10 uM)”.

For `CC1(C)CCCc2cc(C(=O)NS(=O)(=O)c3ccc(N)cc3)c(-c3ccccc3)nc21` [Compound 1190, N-(4-aminophenyl)sulfonyl-8,8-dimethyl-2-phenyl-6,7-dihydro-5H-quinoline-3-carboxamide], the EC30 result was “+++ (“+++” means <3 uM)”.

Turning to `C[C@@H]1CN(c2nc(-c3ccccc3CO)ccc2C(=O)NS(=O)(=O)c2cccnc2N)C(C)(C)C1` [Compound 1706, N-[(2-amino-3-pyridyl)sulfonyl]-6-[2-(hydroxymethyl)phenyl]-2-[(4S)-2,2,4-trimethylpyrrolidin-1-yl]pyridine-3-carboxamide], the EC30 result is “++ (“++” means between 3 uM and 10 uM)”. As for `CC(C)COc1cc(F)cc(-c2ccc(C(=O)NS(=O)(=O)N3CC[C@@H](N)C3)c(N3C[C@@H](C)CC3(C)C)n2)c1` [Compound 1360, N-[(3R)-3-aminopyrrolidin-1-yl]sulfonyl-6-(3-fluoro-5-isobutoxy-phenyl)-2-[(4S)-2,2,4-trimethylpyrrolidin-1-yl]pyridine-3-carboxamide], the entry is “+++ (“+++” means <3 uM)”.

As to `CC(C)COc1cc(-c2ccc(C(=O)NS(=O)(=O)c3ccc[nH]c3=O)c(N3CCC(C)CC3)n2)ccc1Cl` [Compound 941, 6-(4-chloro-3-isobutoxy-phenyl)-2-(4-methyl-1-piperidyl)-N-[(2-oxo-1H-pyridin-3-yl)sulfonyl]pyridine-3-carboxamide], the EC30 result was “+++ (“+++” means <3 uM)”.

On to `COc1ncccc1S(=O)(=O)NC(=O)c1ccc(-c2ccccc2)nc1Oc1c(C)cc(C)cc1C` [Compound 939, N-[(2-methoxy-3-pyridyl)sulfonyl]-6-phenyl-2-(2,4,6-trimethylphenoxy)pyridine-3-carboxamide], for which the EC30 result is given as “+++ (“+++” means <3 uM)”.

For the compound `CC(C)COc1cc(F)cc(-c2ccc(C(=O)NS(=O)(=O)c3cccc(N)n3)c(OC3(C)CCC3)n2)c1` [Compound 1644, N-[(6-amino-2-pyridyl)sulfonyl]-6-(3-fluoro-5-isobutoxy-phenyl)-2-(1-methylcyclobutoxy)pyridine-3-carboxamide], the EC30 entry is recorded as “+++ (“+++” means <3 uM)”. Then `CC(C)CC(C)Oc1cccc(-c2ccc(C(=O)NS(=O)(=O)c3cccc(N)n3)c(N3CCCC3(C)C)n2)n1` (stereo not drawn) [Compound 846, N-[(6-amino-2-pyridyl)sulfonyl]-6-[6-(1,3-dimethylbutoxy)-2-pyridyl]-2-(2,2-dimethylpyrrolidin-1-yl)pyridine-3-carboxamide], with “+++ (“+++” means <3 uM)”; and `Cc1cc(OC(C)C)cc(-c2cnc(N3CC(C)CC3(C)C)c(C(=O)NS(=O)(=O)c3cccc(N)n3)c2)c1` (stereo not drawn) [Compound 1889, N-[(6-amino-2-pyridyl)sulfonyl]-5-(3-isopropoxy-5-methyl-phenyl)-2-(2,2,4-trimethylpyrrolidin-1-yl)pyridine-3-carboxamide], with “+++ (“+++” means <3 uM)”. Then `CC(C)Oc1ccc(-c2ccc(C(=O)NS(=O)(=O)c3cccc(N)n3)c(N3CCCC3C3CC3)n2)cn1` (stereo not drawn) [Compound 928, N-[(6-amino-2-pyridyl)sulfonyl]-2-(2-cyclopropylpyrrolidin-1-yl)-6-(6-isopropoxy-3-pyridyl)pyridine-3-carboxamide], with “+++ (“+++” means <3 uM)”; and `COc1cccc(-c2ccc(C(=O)NS(=O)(=O)c3ccc[nH]c3=O)c(N3C[C@@H](C)CC3(C)C)n2)c1OC` [Compound 1786, 6-(2,3-dimethoxyphenyl)-N-[(2-oxo-1H-pyridin-3-yl)sulfonyl]-2-[(4S)-2,2,4-trimethylpyrrolidin-1-yl]pyridine-3-carboxamide], with “++ (“++” means between 3 uM and 10 uM)”; and `COc1c(C(C)(C)C)nn(Cc2c(C)cc(C)cc2C)c1C(=O)NS(=O)(=O)c1cccc(N)c1` [Compound 1305, N-(3-aminophenyl)sulfonyl-5-tert-butyl-4-methoxy-2-[(2,4,6-trimethylphenyl)methyl]pyrazole-3-carboxamide], with “+++ (“+++” means <3 uM)”. Then `Cc1cc(OCCOC(C)C)nc(-c2ccc(C(=O)NS(=O)(=O)c3cccc(N)n3)c(N3C[C@@H](C)CC3(C)C)n2)c1` [Compound 1703, N-[(6-amino-2-pyridyl)sulfonyl]-6-[6-(2-isopropoxyethoxy)-4-methyl-2-pyridyl]-2-[(4S)-2,2,4-trimethylpyrrolidin-1-yl]pyridine-3-carboxamide], with “+++ (“+++” means <3 uM)”. For `CC1CN(c2nc(-c3ccnn3C(C)C)ccc2C(=O)NS(=O)(=O)c2cccc(N)n2)C(C)(C)C1` (stereo not drawn) [Compound 1242, N-[(6-amino-2-pyridyl)sulfonyl]-6-(2-isopropylpyrazol-3-yl)-2-(2,2,4-trimethylpyrrolidin-1-yl)pyridine-3-carboxamide], the EC30 entry was “+++ (“+++” means <3 uM)”. As for `CC(C)COc1cc(F)cc(-c2ccc(C(=O)NS(=O)(=O)c3ccn[nH]3)c(N3C[C@@H](C)CC3(C)C)n2)c1` [Compound 1041, 6-(3-fluoro-5-isobutoxy-phenyl)-N-(1H-pyrazol-5-ylsulfonyl)-2-[(4S)-2,2,4-trimethylpyrrolidin-1-yl]pyridine-3-carboxamide], the entry is “+++ (“+++” means <3 uM)”.

These data come from patent US10758534B2 (Vertex Pharmaceuticals Incorporated, priority 2014, dated 2020).
